Test results taken from US12649733B2, “3,6-diamino-pyridazin-3-yl derivatives, pharmaceutical compositions containing them and their uses as pro-apoptotic agents” (LES LABORATOIRES SERVIER, priority 2019, dated 2026).

Key:
H146 cells = assay: H146 cell viability, MTT assay; type: cell-based; conditions: Homo sapiens, NCI-H146, 48 h, 48 h exposure
Outline: (§1)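 Cells grown in RPMI 1640 with 10% heat-inactivated FBS at 37° C, 5% CO2, exposed 48 h to nine 3.16-fold serial compound dilutions in triplicate. MTT added for 4 h, SDS/HCl solubilisation overnight, absorbance at 540 nm; IC50 by four-parameter fit.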

Bcl-xL protein = biological target: T1, Bcl-xL protein (Homo sapiens, UniProt Q07817, N197C); assay: Fluorescence quenching assay (PUMA peptide displacement); type: binding; conditions: 1 nM protein, 400 nM peptide, 2 hours at 23° C.; KI determined from IC50
T1 construct: (2-197)[N197C]; His-His (two His8 stretches joined by a Gly/Ala/Ser/Thr linker)
T1 sequence (Q07817 2-197 N197C): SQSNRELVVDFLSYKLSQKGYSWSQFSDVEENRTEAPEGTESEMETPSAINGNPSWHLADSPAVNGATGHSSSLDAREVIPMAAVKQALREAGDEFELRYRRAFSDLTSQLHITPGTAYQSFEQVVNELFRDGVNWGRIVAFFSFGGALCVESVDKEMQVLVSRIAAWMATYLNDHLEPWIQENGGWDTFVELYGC
Outline: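 Displacement of a TQ5WS-quencher-labelled PUMA peptide (400 nM) from Cy5-labelled His-tagged Bcl-xL 2-197 N197C (1 nM) raises fluorescence. An 11-point compound dilution was incubated 2 h at 23 °C in HEPES 10 mM, NaCl 150 mM, 0.05% Tween 20, pH 7.4, 5% DMSO. Fluorescence was read at Ex 620/Em 680 nm, and KI was derived from IC50.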

MOLT-4 cells = assay: MOLT-4 cell viability, MTT assay; type: cell-based; conditions: Homo sapiens, MOLT-4, 48 h, 48 h exposure
Outline: as §1

| SMILES | IC50 (H146 cells) [nM] | Ki (Bcl-xL protein) [nM] | IC50 (MOLT-4 cells) [nM] |
| --- | --- | --- | --- |
| CNCC#Cc1ccc(OCCCc2sc(N(CCCCC[N+](C)(C)CC(=O)O)c3cc(C)c(Nc4nc5ccccc5s4)nn3)nc2C(=O)[O-])c(F)c1 [Example 231, 2-[[6-(1,3-Benzothiazol-2-ylamino)-5-methyl-pyridazin-3-yl]-[5-[carboxymethyl(dimethyl)ammonio]pentyl]amino]-5-[3-[2-fluoro-4-[3-(methylamino)prop-1-ynyl]phenoxy]propyl]thiazole-4-carboxylate] | 1610 | 0.0013 | 1190 |
| CCN(CC)CCNCCCCCN(c1cc(C)c(Nc2nc3ccccc3s2)nn1)c1nc(C(=O)O)c(CCCOc2ccc(C#CCN(C)C)cc2F)s1 [Example 182, 2-[[6-(1,3-Benzothiazol-2-ylamino)-5-methyl-pyridazin-3-yl]-[5-[2-(diethylamino)ethylamino]pentyl]amino]-5-[3-[4-[3-(dimethylamino)prop-1-ynyl]-2-fluoro-phenoxy]propyl]thiazole-4-carboxylic acid] | 199 | 0.0074 | 129 |
| Cc1cc(N(C)c2nc(C(=O)[O-])c(CCCOc3ccc(C#CCNCC[N+](C)(C)C)cc3F)s2)nnc1Nc1nc2ccccc2s1 [Example 222, 2-[3-[4-[3-[2-[[6-(1,3-Benzothiazol-2-ylamino)-5-methyl-pyridazin-3-yl]-methyl-amino]-4-carboxy-thiazol-5-yl]propoxy]-3-fluoro-phenyl]prop-2-ynylamino]ethyl-trimethyl-ammonium] | 32.4 | 0.0014 | 61 |
| Cc1cc(N(CCCC(O)C[N+]23CCC(CC2)CC3)c2nc(C(=O)[O-])c(CCCOc3ccc(C#CCN(C)C)cc3F)s2)nnc1Nc1nc2ccccc2s1 (stereo not drawn) [Example 215, 2-[[6-(1,3-Benzothiazol-2-ylamino)-5-methyl-pyridazin-3-yl]-(4-hydroxy-5-quinuclidin-1-ium-1-yl-pentyl)amino]-5-[3-[4-[3-(dimethylamino)prop-1-ynyl]-2-fluoro-phenoxy]propyl]thiazole-4-carboxylate] | 174 | 0.0031 | 406 |
| CNCCCCCN(c1cc(C)c(Nc2nc3ccccc3s2)nn1)c1nc(C(=O)O)c(CCCOc2ccc(C#CCN(C)C)cc2F)s1 [Example 194, 2-[[6-(1,3-Benzothiazol-2-ylamino)-5-methyl-pyridazin-3-yl]-[5-(methylamino)pentyl]amino]-5-[3-[4-[3-(dimethylamino)prop-1-ynyl]-2-fluoro-phenoxy]propyl]thiazole-4-carboxylic acid] | 27 | 0.0032 | 129 |
| Cc1cc(N(CCCC(O)C[N+]2(C)CCCCC2)c2nc(C(=O)[O-])c(CCCOc3ccc(C#CCN(C)C)cc3F)s2)nnc1Nc1nc2ccccc2s1 (stereo not drawn) [Example 220, 2-[[6-(1,3-Benzothiazol-2-ylamino)-5-methyl-pyridazin-3-yl]-[4-hydroxy-5-(1-methylpiperidin-1-ium-1-yl)pentyl]amino]-5-[3-[4-[3-(dimethylamino)prop-1-ynyl]-2-fluoro-phenoxy]propyl]thiazole-4-carboxylate] | 221 | 0.0035 | 984 |
| CNCCCc1ccc(OCCCc2sc(N(CCCCO)c3cc(C)c(Nc4nc5ccccc5s4)nn3)nc2C(=O)O)c(F)c1 [Example 186, 2-[[6-(1,3-Benzothiazol-2-ylamino)-5-methyl-pyridazin-3-yl]-(4-hydroxybutyl)amino]-5-[3-[2-fluoro-4-[3-(methylamino)propyl]phenoxy]propyl]thiazole-4-carboxylic acid] | 16.9 | 0.001 | 85.3 |
| Cc1cc(N(C)c2nc(C(=O)O)c(CCCOc3ccc(C45CC(CN(C)C)(C4)C5)cc3)s2)nnc1Nc1nc2ccccc2s1 [Example 234, 2-[[6-(1,3-Benzothiazol-2-ylamino)-5-methyl-pyridazin-3-yl]-methyl-amino]-5-[3-[4-[1-[(dimethylamino)methyl]-3-bicyclo[1.1.1]pentanyl]phenoxy]propyl]thiazole-4-carboxylic acid] | 15 | 0.0016 | 3.8 |
| Cc1cc(N(CCCCC[N+](C)(C)CCCO)c2nc(C(=O)[O-])c(CCCOc3ccc(C#CCN(C)C)cc3F)s2)nnc1Nc1nc2ccccc2s1 [Example 225, 2-[[6-(1,3-Benzothiazol-2-ylamino)-5-methyl-pyridazin-3-yl]-[5-[3-hydroxypropyl(dimethyl)ammonio]pentyl]amino]-5-[3-[4-[3-(dimethylamino)prop-1-ynyl]-2-fluoro-phenoxy]propyl]thiazole-4-carboxylate] | 351 | 0.0035 | 1080 |
| CCN(CC)CCNCCCCN(c1cc(C)c(Nc2nc3ccccc3s2)nn1)c1nc(C(=O)O)c(CCCOc2ccc(C#CCN(C)C)cc2F)s1 [Example 176, 2-[[6-(1,3-Benzothiazol-2-ylamino)-5-methyl-pyridazin-3-yl]-[4-[2-(diethylamino)ethylamino]butyl]amino]-5-[3-[4-[3-(dimethylamino)prop-1-ynyl]-2-fluoro-phenoxy]propyl]thiazole-4-carboxylic acid] | 124 | 0.0011 | 76.2 |
| CNCCCCN(c1cc(C)c(Nc2nc3ccccc3s2)nn1)c1nc(C(=O)O)c(CCCOc2ccc(C#CCN(C)C)cc2F)s1 [Example 188, 2-[[6-(1,3-Benzothiazol-2-ylamino)-5-methyl-pyridazin-3-yl]-[4-(methylamino)butyl]amino]-5-[3-[4-[3-(dimethylamino)prop-1-ynyl]-2-fluoro-phenoxy]propyl]thiazole-4-carboxylic acid] | 5.44 | 0.0018 | 3410 |
| Cc1cc(N(CCCCCNCCN2CCCCC2)c2nc(C(=O)O)c(CCCOc3ccc(C#CCN(C)C)cc3F)s2)nnc1Nc1nc2ccccc2s1 [Example 187, 2-[[6-(1,3-Benzothiazol-2-ylamino)-5-methyl-pyridazin-3-yl]-[5-[2-(1-piperidyl)ethylamino]pentyl]amino]-5-[3-[4-[3-(dimethylamino)prop-1-ynyl]-2-fluoro-phenoxy]propyl]thiazole-4-carboxylic acid] | 23400 | 0.0025 | 103 |
| CNCC#Cc1ccc(OCCCc2sc(N(CCCCCC[N+](C)(C)C)c3cc(C)c(Nc4nc5ccccc5s4)nn3)nc2C(=O)[O-])c(F)c1 [Example 224, 2-[[6-(1,3-Benzothiazol-2-ylamino)-5-methyl-pyridazin-3-yl]-[6-(trimethylammonio)hexyl]amino]-5-[3-[2-fluoro-4-[3-(methylamino)prop-1-ynyl]phenoxy]propyl]thiazole-4-carboxylate] | 1160 | 0.002 | 2180 |
| CNCC#Cc1ccc(OCCCc2sc(N(CCC[N+](C)(C)CCCS(=O)(=O)[O-])c3cc(C)c(Nc4nc5ccccc5s4)nn3)nc2C(=O)O)c(F)c1 [Example 235, 3-[3-[[6-(1,3-Benzothiazol-2-ylamino)-5-methyl-pyridazin-3-yl]-[4-carboxy-5-[3-[2-fluoro-4-[3-(methylamino)prop-1-ynyl]phenoxy]propyl]thiazol-2-yl]amino]propyl-dimethyl-ammonio]propane-1-sulfonate] | 413 | 0.0011 | 413 |
